Source: BindingDB's records for patent US20230312550 (Astrazeneca, 2023)

Molecular target: Dipeptidyl peptidase 2 (Homo sapiens, UniProt Q9UHL4)
Assay: hDPP7 Inhibition Assay
Conditions: not given
Protocol: Table 4: Compounds were tested in a biochemical inhibition assay using human dipeptidylpeptidase 7 (hDPP7) enzyme at 15 nM FAC (BPS Bioscience, #80070) and the substrate Ala-Pro-amino-methylcoumarin (BPS Bioscience, #80305) at 5 μM FAC. The enzymatic reactions were conducted in duplicate at rt for 30 min in 50 μL DPP assay buffer (BPS Bioscience, #80300). Compound solutions (in DMSO) at 10 CR, 3 fold dilution series were prepared in assay buffer ten-fold higher than the final concentration, and 5 μL of the dilution was added to a 50 μL reaction so that the highest compound concentration was 100 μM FAC and the concentration of DMSO was 1% in all wells. The plates were read on a Tecan Infinite M1000 microplate reader with excitation 340 nm and emission 460 nm. Data were analyzed in Graph Pad Prism. IC50 values were determined by plotting % inhibition versus log compound concentration and using a one site dose response model. Raw data signals were normalized using 1% DMSO as 0% control and no enzyme as 100% inhibitor control.

IC50 [µM] | Compound
> 100 | Cc1cc(N2CCOCC2)cc2c(C(=O)NCC(=O)N3CSC[C@H]3C#N)ccnc12 [US20230312550, Example 9]

Molecular target: T1, Prolyl endopeptidase FAP (Homo sapiens, UniProt Q12884)
T1 sequence (Q12884 whole entry): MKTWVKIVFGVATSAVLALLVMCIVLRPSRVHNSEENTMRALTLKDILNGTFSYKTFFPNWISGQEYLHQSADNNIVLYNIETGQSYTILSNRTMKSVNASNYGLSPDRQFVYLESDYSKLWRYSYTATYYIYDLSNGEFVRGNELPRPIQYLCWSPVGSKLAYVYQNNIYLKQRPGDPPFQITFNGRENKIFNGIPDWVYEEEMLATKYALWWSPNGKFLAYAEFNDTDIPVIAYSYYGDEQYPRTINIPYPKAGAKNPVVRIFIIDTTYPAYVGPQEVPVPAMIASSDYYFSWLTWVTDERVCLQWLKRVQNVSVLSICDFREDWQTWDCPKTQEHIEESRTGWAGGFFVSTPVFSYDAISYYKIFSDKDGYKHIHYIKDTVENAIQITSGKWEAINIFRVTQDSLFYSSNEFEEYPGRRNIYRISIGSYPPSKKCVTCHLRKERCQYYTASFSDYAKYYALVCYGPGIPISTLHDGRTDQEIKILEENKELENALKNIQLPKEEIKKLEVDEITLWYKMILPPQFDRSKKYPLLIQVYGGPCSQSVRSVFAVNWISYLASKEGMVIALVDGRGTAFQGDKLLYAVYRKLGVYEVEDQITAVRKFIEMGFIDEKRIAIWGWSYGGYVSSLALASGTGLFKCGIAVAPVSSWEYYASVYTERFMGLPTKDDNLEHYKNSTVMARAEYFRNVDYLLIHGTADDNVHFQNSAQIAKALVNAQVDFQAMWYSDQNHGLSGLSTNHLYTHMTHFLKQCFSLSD
Assay: hFAP Binding Assay
Conditions: not given

koff [s⁻¹] | Compound
0.0002 | C[C@@H]1CCCN1c1ccc2nccc(C(=O)NCC(=O)N3CSC[C@H]3C#N)c2c1 [US20230312550, Example 211]
0.00034 | COC[C@@H]1CCCN1c1ccc2nccc(C(=O)NCC(=O)N3CSC[C@H]3C#N)c2c1 [US20230312550, Example 212]
0.00017 | N#C[C@@H]1CSCN1C(=O)CNC(=O)c1ccnc2ccc(N3C[C@H](F)[C@@H](F)C3)cc12 [US20230312550, Example 213]
9.2e-05 | N#C[C@@H]1CSCN1C(=O)CNC(=O)c1ccnc2ccc(N3C[C@@H](F)[C@H](F)C3)cc12 [US20230312550, Example 214]
0.00017 | Cc1nc(C)c(-c2ccc3nccc(C(=O)NCC(=O)N4CSC[C@H]4C#N)c3c2)o1 [US20230312550, Example 215]
0.0009 | Cc1noc(C)c1-c1ccc2nccc(C(=O)NCC(=O)N3CSC[C@H]3C#N)c2c1 [US20230312550, Example 216]
0.0013 | N#C[C@@H]1CSCN1C(=O)CNC(=O)c1ccnc2ccc(-n3ccnc3-c3ccccc3)cc12 [US20230312550, Example 217]
0.00032 | N#C[C@@H]1CSCN1C(=O)CNC(=O)c1ccnc2ccc(-n3ccc(-c4ccccc4)c3)cc12 [US20230312550, Example 218]
0.0002 | N#C[C@@H]1CSCN1C(=O)CNC(=O)c1ccnc2ccc(-n3ccc4c3CCCC4)cc12 [US20230312550, Example 219]
2.6e-05 | N#C[C@@H]1CSCN1C(=O)CNC(=O)c1ccnc2ccc(N3CCC(F)(c4ccccc4)CC3)cc12 [US20230312550, Example 223]
6.8e-05 | N#C[C@@H]1CSCN1C(=O)CNC(=O)c1ccnc2ccc(N3C[C@H](O)C(F)(F)C3)cc12 [US20230312550, Example 224]
2.6e-05 | N#C[C@@H]1CSCN1C(=O)CNC(=O)c1ccnc2ccc(N3CCC4(CC3)COC4)cc12 [US20230312550, Example 229]

Same assay, conditions: read-out: kon (M-1-s-1)

kon [M⁻¹ s⁻¹] | Compound
5.9e+06 | C[C@@H]1CCCN1c1ccc2nccc(C(=O)NCC(=O)N3CSC[C@H]3C#N)c2c1 [US20230312550, Example 211]
3.3e+06 | COC[C@@H]1CCCN1c1ccc2nccc(C(=O)NCC(=O)N3CSC[C@H]3C#N)c2c1 [US20230312550, Example 212]
4.4e+06 | N#C[C@@H]1CSCN1C(=O)CNC(=O)c1ccnc2ccc(N3C[C@H](F)[C@@H](F)C3)cc12 [US20230312550, Example 213]
2.9e+06 | N#C[C@@H]1CSCN1C(=O)CNC(=O)c1ccnc2ccc(N3C[C@@H](F)[C@H](F)C3)cc12 [US20230312550, Example 214]
1.8e+06 | Cc1nc(C)c(-c2ccc3nccc(C(=O)NCC(=O)N4CSC[C@H]4C#N)c3c2)o1 [US20230312550, Example 215]
5.2e+06 | Cc1noc(C)c1-c1ccc2nccc(C(=O)NCC(=O)N3CSC[C@H]3C#N)c2c1 [US20230312550, Example 216]
1.8e+06 | N#C[C@@H]1CSCN1C(=O)CNC(=O)c1ccnc2ccc(-n3ccnc3-c3ccccc3)cc12 [US20230312550, Example 217]
670000 | N#C[C@@H]1CSCN1C(=O)CNC(=O)c1ccnc2ccc(-n3ccc(-c4ccccc4)c3)cc12 [US20230312550, Example 218]
2.4e+06 | N#C[C@@H]1CSCN1C(=O)CNC(=O)c1ccnc2ccc(-n3ccc4c3CCCC4)cc12 [US20230312550, Example 219]
2.5e+06 | N#C[C@@H]1CSCN1C(=O)CNC(=O)c1ccnc2ccc(N3CCC(F)(c4ccccc4)CC3)cc12 [US20230312550, Example 223]
3e+06 | N#C[C@@H]1CSCN1C(=O)CNC(=O)c1ccnc2ccc(N3C[C@H](O)C(F)(F)C3)cc12 [US20230312550, Example 224]
2.4e+06 | N#C[C@@H]1CSCN1C(=O)CNC(=O)c1ccnc2ccc(N3CCC4(CC3)COC4)cc12 [US20230312550, Example 229]
